Source: patent US4272630A, “D-Homosteroids” (priority 1979, dated 1981)
≈ marks a conversion by molar mass, not a printed value.

Key:
[1] = test system: ear of male mice (oedema); test: Mouse Ear Test (oedema inhibition, topical, croton oil); format: in vivo; conditions: dissolved in croton oil, applied 15 seconds under 600 g to right ear of male mice (25-30 g), 4 hours, read-out: Mouse Ear EC50 (concentration which gave a 50% oedema inhibition in comparison with a control group)
Description: (§1) The tests carried out can be described as follows:
The D-homosteroids, dissolved in croton oil, were applied for 15 seconds under a pressure of 600 g to the right ear of male mice weighing 25-30 g. The left ear served as the control. Four hours later, the mice were killed, and tissue was removed with a punch from the same position on treated and untreated ears and weighed. The EC50, namely that concentration which gave a 50% oedema inhibition in comparison with a control group, was determined.

[2] = test system: granulomas in female rats; test: Felt Pellet Test (granuloma reduction, oral); format: in vivo; conditions: Rattus norvegicus, four successive days, female rats (90-110 g), removed on 5th day, read-out: Felt Pellet ED40 (dosage which gave a 40% reduction of the granulation weight)
Description: as §1
Two felt pellets were implanted under the skin (scapula region) in female rats (90-110 g) under ether narcosis. The D-homosteroids were administered orally on four successive days commencing on the day of the implantation. On the 5th day, the rats were killed, and the granulomas which formed were removed, dried and weighed. The ED40, namely that dosage which gave a 40% reduction of the granulation weight, was determined.

Structure (SMILES) | EC50 [1] [µg/mL] | ED40 [2] [mg/kg]
COC(=O)C1(OC(C)=O)C=CCC2C3CCC4=CC(=O)C=CC4(C)C3C(O)CC21C [17aα-acetoxy-11β-hydroxy-3-oxo-D-homoandrosta-1,4,16-triene-17aβ-carboxylic acid methyl ester] | 30 (≈ 72.4 µM) | 6.4
COC(=O)C1(OC(C)=O)C=CCC2C3CCC4=CC(=O)C=CC4(C)C3(F)C(O)CC21C [17-acetoxy-9-fluoro-11β-hydroxy-3-oxo-D-homoandrosta-1,4,16-triene-17aβ-carboxylic acid methyl ester] | 10 (≈ 23.1 µM) | 6
